Laboratory results as given in ChEMBL document CHEMBL1127761, “Two new phospholipase d inhibitors, sch 49211 and sch 49212, produced by the fungus nattrasia mangirferae” (Bioorg Med Chem Lett, 1994).

Tested on: HL-60
Assay: In vitro inhibitory activity against phospholipase D (PLD) activation in HL-60 cells by phospholipase D assay
Assay type: cell-based
Conditions: Homo sapiens

IC50 [µM] | SMILES
11 | O=C1C(O)=CC2(Oc3cccc4cccc(c34)O2)[C@@]23O[C@@]12[C@@H](O)C=C[C@H]3O
12 | O=C1C(O)=CC2(Oc3cccc4cccc(c34)O2)[C@@]23O[C@@]12[C@@H](O)CC[C@H]3O
